Experimental findings from patent US6838481B1, “Skin whitener” (LG Household & Health Care Ltd., priority 1998, dated 2005) are described below.

Data set [1] relates to B-16 mouse melanoma cells. Briefly: Melanin formation inhibiting effects of EL-1 at the cellular level. In kind it is cell-based. To be noted: for Melanin formation amount: cultured 3 days, repetition number = 3; for Inhibition ratio (%): melanin formation relative to control; for Cell toxicity: final conc. 10 μg/ml. As for the experimental part: The whitening effect was tested at the cellular level by adding EL-1 obtained from the above EXAMPLES 1 to 7 to a cultured solution of B-16 mouse melanoma cells (Lotan R., Lotan D. Cancer Res. 40:3345-3350, 1980) as follows.
The EL-1 obtained in EXAMPLES 1 to 7 was added to a culture solution of B-16 mouse melanoma cells so that the final concentrations become 1 μg/ml, 5 μg/ml and 50 μg/ml respectively, and they were cultured for 3 days. After trypsin was added to the cells and the solution was removed from the culture container and centrifuged, melanin was extracted. 1 ml of sodium hydroxide solution (1 N concentration) was added to the extracted melanin and boiled for about 10 minutes to dissolve the melanin. The test was carried out in a way whereby the formed melanin amount was represented in absorbance per unit cell number, expressed as A400/10^6 cells by measuring the absorbance at 400 nm. After repeating this test 3 times, the melanin formation amount relative to the control was calculated as an inhibition ratio (%) using the average values.

Data set [2] deals with B-16 mouse melanoma cells. The description is as above. In kind it is cell-based. To be noted: concentration of 50 μg/ml.

With `C=C1CCC2C(/C=C(\C)C(=O)C3(OC(C)=O)CC(C)C(OC(=O)c4ccccc4)C3C1OC(C)=O)C2(C)C` (stereo not drawn) [EL-1, 5,15-diacetyl-3-benzoyllathyrol], the Melanin formation amount in data set [1] (final conc. 1 μg/ml) turned out to be 0.032 ± 0.001 A400/10^6 cells; in data set [1] (final conc. 5 μg/ml) it was 0.019 ± 0.003 A400/10^6 cells; in data set [1] (final conc. 50 μg/ml), 0.007 ± 0.001 A400/10^6 cells. For the same molecule, the results for the “Inhibition ratio (%)” value in data set [1] (final conc. 1 μg/ml), in data set [1] (final conc. 5 μg/ml) and in data set [1] (final conc. 50 μg/ml) were 28%, 57% and 85%, respectively. Also, in data set [1] (mouse B-16 melanoma cells treated), the “Melanin synthesis inhibiting effect” value is “very strong melanin synthesis inhibiting effect”. Besides, the Cell toxicity result in data set [2] is “does not show cell toxicity”.
Regarding `Oc1ccc(O)cc1` [Hydroquinone, reference compound], the Melanin formation amount in data set [1] (final conc. 1 μg/ml) worked out at 0.025 ± 0.002 A400/10^6 cells. The “Inhibition ratio (%)” value in data set [1] (final conc. 1 μg/ml) was determined as 43%. Further, the Cell toxicity entry in data set [1] is reported as “Cell extinction”; in data set [1] (listed as hydroquinone), “high cell toxicity”.
